Measured values reported in patent US11421044B2, “Nitric oxide-releasing antibacterial polymers and scaffolds fabricated therefrom and methods pertaining thereto” (THE UNIVERSITY OF NORTH CAROLINA AT CHAPEL HILL, priority 2018, dated 2022).

What was measured:
Assay in all cases: Planktonic bactericidal assay, 4 h
Settings in all cases: 4 h exposure
[1] = system: E. coli; type: cell-based, Escherichia coli (ATCC #43888)
Description: (§1) Planktonic bactericidal assay. Bacterial cultures of P. aeruginosa, E. coli, E. faecalis, S. aureus, multidrug-resistant (MDR) P. aeruginosa, and methicillin-resistant S. aureus were grown from frozen (−80° C.) stocks overnight in TSB (3 mL) at 37° C. An aliquot (1 mL) of the overnight solution was recultured in fresh TSB (50 mL) to a concentration of 10^8 CFU mL^−1 and subsequently diluted to 10^6 CFU mL^−1 in PBS (10 mM, pH 7.4). Weighed samples of control (non-NO-releasing) HA, NO-releasing HA, or neomycin sulfate were dissolved in PBS and titrated with 1 M HCl to adjust the pH to 7.4.
(§2) Samples were added to a 96-well polystyrene plate and serially diluted in PBS so that each well contained 100 μL of control HA, NO-releasing HA, or neomycin. Bacterial solution containing 10^6 CFU mL^−1 (100 μL; 1 vol % TSB supplemented PBS) was added to each well, giving final HA concentrations in the range of 0.25 to 32 mg mL^−1 or neomycin concentrations from 0.5 to 1024 μg mL^−1. The 96-well plate was then incubated at 37° C. for 4 h with gentle shaking. […] Viability of bacteria following treatment with HA or neomycin was determined using a Flash & Go colony counter (IUL; Farmingdale, N.Y.). […] The NO dose required for bactericidal action was calculated by multiplying the MBC4 h of the NO-releasing HA samples (mg mL^−1) with the total NO released in PBS (pH 7.4; μmol NO mg^−1 HA) at 4 h. […]

[2] = system: P. aeruginosa; type: cell-based, Pseudomonas aeruginosa (ATCC #47085)
Description: as §1, §2

[3] = system: S. aureus; type: cell-based, Staphylococcus aureus (ATCC #29213)
Description: as §1, §2

[4] = system: E. faecalis; type: cell-based, Enterococcus faecalis (ATCC #29212)
Description: as §1, §2

[5] = system: MDR-P. aeruginosa; type: cell-based, multidrug-resistant P. aeruginosa (ATCC #BAA-2110)
Description: as §1, §2

[6] = system: MRSA; type: cell-based, methicillin-resistant S. aureus (ATCC #33591)
Description: as §1, §2

Question: For neomycin sulfate, which “Dose of neomycin for 3-log reduction” value [1] is on record?
Answer: 1 μg mL^−1

Question: And the “Dose of neomycin for 3-log reduction” value [2]?
Answer: 32 μg mL^−1

Question: And the “Dose of neomycin for 3-log reduction” value [3]?
Answer: 2 μg mL^−1

Question: And the “Dose of neomycin for 3-log reduction” value [4]?
Answer: 64 μg mL^−1

Question: What about the “Dose of neomycin for 3-log reduction” value [5] of the same substance?
Answer: 128 μg mL^−1

Question: And the “Dose of neomycin for 3-log reduction” value [6]?
Answer: >1024 μg mL^−1
